Calls of active or inactive are those of the source. No cut-off for these calls is given here.
Legend:
[1] = biological target: 5-hydroxytryptamine receptor 2A (Homo sapiens, UniProt P28223); assay: Displacement of [3H]-ketanserin from human 5-HT2A receptor expressed in CHO-K1 cells measured after 1.5 hrs by Microbeta plate reader method; type: cell-based
[2] = biological target: D(2) dopamine receptor (Homo sapiens, UniProt P14416); assay: Displacement of [3H]-raclopride from human D2L receptor expressed in HEK293 cells measured after 1 hr by Microbeta plate reader method; type: cell-based
D(2) dopamine receptor, sequence (P14416 whole entry): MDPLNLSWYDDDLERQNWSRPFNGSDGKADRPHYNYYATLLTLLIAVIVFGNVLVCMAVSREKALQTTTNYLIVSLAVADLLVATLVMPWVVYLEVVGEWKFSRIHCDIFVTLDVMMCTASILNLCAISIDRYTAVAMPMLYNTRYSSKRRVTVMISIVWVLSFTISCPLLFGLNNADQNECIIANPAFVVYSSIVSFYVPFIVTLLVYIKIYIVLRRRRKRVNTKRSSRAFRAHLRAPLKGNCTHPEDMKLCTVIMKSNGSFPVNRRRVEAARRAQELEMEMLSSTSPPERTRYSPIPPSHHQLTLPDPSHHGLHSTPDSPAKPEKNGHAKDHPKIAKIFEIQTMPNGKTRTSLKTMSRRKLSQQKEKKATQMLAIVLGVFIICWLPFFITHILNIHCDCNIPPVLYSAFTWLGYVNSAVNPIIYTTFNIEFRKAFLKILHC

[3] = Permeability of compound at pH 7.4 by PAMPA assay
[4] = Cytotoxicity against CHO-K1 cells measured after 24 hrs by MTT assay; type: toxicity, cell-based, Cricetulus griseus; conditions: Chinese hamster
[5] = biological target: T1, 5-hydroxytryptamine receptor 3A (Cavia porcellus, UniProt O70212); assay: Antagonist activity at 5-HT3 receptor in guinea-pig ileum assessed as inhibition of 5HT-induced contraction; type: tissue-based
T1 sequence (O70212 whole entry): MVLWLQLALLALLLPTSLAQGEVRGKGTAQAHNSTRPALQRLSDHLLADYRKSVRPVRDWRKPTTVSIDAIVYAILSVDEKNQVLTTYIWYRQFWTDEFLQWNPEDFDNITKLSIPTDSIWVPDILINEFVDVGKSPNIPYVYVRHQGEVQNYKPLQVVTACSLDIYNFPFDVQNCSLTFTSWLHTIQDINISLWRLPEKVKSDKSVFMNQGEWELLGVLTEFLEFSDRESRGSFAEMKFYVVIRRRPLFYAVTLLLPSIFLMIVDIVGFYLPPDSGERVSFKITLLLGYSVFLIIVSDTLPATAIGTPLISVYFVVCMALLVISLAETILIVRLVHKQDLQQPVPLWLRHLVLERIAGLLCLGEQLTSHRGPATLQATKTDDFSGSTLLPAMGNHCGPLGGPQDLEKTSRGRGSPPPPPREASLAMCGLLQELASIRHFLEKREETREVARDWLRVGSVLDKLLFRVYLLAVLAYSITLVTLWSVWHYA

[6] = test system: Rattus norvegicus; assay: Antipsychotic activity in male Wistar rat assessed as inhibition of amphetamine-stimulated locomotor activity at 1 mg/kg, ip; type: functional, organism-based
[7] = test system: Rattus norvegicus; assay: Antipsychotic activity in male Wistar rat assessed as restoration of prepulse inhibition of acoustic startle response at 1 mg/kg, ip; type: functional, organism-based
[8] = Cytotoxicity against HEK293 cells measured after 24 hrs by MTT assay; type: toxicity, cell-based; conditions: human
[9] = biological target: T2, 5-hydroxytryptamine receptor 3A (Homo sapiens) (UniProt P46098); assay: Competitive binding affinity towards 5-HT3 receptor (unknown origin); conditions: filed as antagonist
T2 sequence (whole entry): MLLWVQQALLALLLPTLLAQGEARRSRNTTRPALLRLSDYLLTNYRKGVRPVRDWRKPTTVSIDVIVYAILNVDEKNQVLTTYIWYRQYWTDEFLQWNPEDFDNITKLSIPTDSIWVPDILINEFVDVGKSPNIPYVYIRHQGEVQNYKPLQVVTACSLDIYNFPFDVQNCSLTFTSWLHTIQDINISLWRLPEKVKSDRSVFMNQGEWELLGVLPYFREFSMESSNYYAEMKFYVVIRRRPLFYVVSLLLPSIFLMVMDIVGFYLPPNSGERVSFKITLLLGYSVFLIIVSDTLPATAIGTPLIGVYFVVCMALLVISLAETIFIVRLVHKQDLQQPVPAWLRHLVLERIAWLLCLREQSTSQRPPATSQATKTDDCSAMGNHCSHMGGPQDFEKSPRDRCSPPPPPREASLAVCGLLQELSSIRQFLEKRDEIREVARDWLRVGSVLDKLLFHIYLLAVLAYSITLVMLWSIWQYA

[10] = biological target: T3, 5-hydroxytryptamine receptor 1A (Homo sapiens, UniProt P08908); assay: Displacement of [3H]-8-OH-DPAT from human 5-HT1A receptor expressed in HEK293 cells measured after 1 hr by Microbeta plate reader method; type: cell-based
T3 sequence (P08908 whole entry): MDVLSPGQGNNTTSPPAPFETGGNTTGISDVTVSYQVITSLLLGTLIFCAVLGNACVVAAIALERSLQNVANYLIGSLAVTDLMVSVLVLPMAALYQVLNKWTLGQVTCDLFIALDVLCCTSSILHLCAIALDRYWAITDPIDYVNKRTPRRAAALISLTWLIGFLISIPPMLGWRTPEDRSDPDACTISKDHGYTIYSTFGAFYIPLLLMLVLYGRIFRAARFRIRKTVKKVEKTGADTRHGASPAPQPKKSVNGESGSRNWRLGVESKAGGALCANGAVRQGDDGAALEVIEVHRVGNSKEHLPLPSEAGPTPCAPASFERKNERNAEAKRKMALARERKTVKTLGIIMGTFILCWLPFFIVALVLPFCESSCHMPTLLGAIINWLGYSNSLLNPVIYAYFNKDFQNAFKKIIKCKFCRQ

[11] = biological target: 5-hydroxytryptamine receptor 7 (Homo sapiens, UniProt P34969); assay: Displacement of [3H]-5-CT from human 5-HT7b receptor expressed in HEK293 cells measured after 1 hr by Microbeta plate reader method; type: cell-based
5-hydroxytryptamine receptor 7, sequence (P34969 whole entry): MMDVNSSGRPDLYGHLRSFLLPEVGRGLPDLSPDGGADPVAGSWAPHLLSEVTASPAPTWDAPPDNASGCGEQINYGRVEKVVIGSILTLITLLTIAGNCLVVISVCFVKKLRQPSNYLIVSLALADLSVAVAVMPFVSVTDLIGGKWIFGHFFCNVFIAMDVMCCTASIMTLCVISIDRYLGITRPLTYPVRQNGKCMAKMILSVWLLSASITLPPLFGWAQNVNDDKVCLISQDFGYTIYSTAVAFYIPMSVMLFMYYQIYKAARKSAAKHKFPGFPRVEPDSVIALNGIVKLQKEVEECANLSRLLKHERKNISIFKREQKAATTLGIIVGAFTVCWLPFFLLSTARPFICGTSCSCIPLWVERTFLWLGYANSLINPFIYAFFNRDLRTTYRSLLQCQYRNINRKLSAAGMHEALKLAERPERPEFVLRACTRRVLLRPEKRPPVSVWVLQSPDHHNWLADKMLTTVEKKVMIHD

[12] = Tmax in male Wistar rat brain at 2 mg/kg, ip; type: ADME, organism-based
[13] = Toxicity in male Wistar rat assessed as effect on creatine kinase level in plasma at 2 mg/kg, ip; type: organism-based; conditions: in vivo
[14] = Toxicity in male Wistar rat assessed as abnormalities in liver at 2 mg/kg, ip; type: organism-based; conditions: in vivo
[15] = Toxicity in male Wistar rat assessed as abnormalities in kidney at 2 mg/kg, ip; type: organism-based; conditions: in vivo
[16] = MRT in male Wistar rat brain at 2 mg/kg, ip; type: ADME, organism-based
[17] = AUC in male Wistar rat brain at 2 mg/kg, ip; type: ADME, organism-based; set-up: dose 2 mg/kg, route ip; conditions: in vivo
[18] = MRT in male Wistar rat plasma at 2 mg/kg, ip; type: ADME, organism-based
[19] = Cmax in male Wistar rat brain at 2 mg/kg, ip; type: ADME, organism-based; set-up: dose 2 mg/kg, route ip
[20] = Cmax in male Wistar rat plasma at 2 mg/kg, ip; type: ADME, organism-based; set-up: dose 2 mg/kg, route ip
[21] = Toxicity in male Wistar rat assessed as effect on ALT level at 2 mg/kg, ip; type: organism-based; conditions: in vivo
[22] = Half-life in male Wistar rat brain at 2 mg/kg, ip; type: ADME, organism-based
[23] = Toxicity in male Wistar rat assessed as maximum tolerated dose administered intraperitoneally; conditions: in vivo, route ip
[24] = AUC in male Wistar rat plasma at 2 mg/kg, ip; type: ADME, organism-based; set-up: dose 2 mg/kg, route ip; conditions: in vivo
[25] = Toxicity in male Wistar rat assessed as effect on AST level at 2 mg/kg, ip; type: organism-based; conditions: in vivo
[26] = Toxicity in male Wistar rat assessed as adverse effects at 2 mg/kg, ip; type: organism-based; conditions: in vivo
[27] = Half-life in male Wistar rat plasma at 2 mg/kg, ip; type: ADME, organism-based
[28] = Tmax in male Wistar rat plasma at 2 mg/kg, ip; type: ADME, organism-based

5-hydroxytryptamine receptor 2A, sequence (P28223 whole entry): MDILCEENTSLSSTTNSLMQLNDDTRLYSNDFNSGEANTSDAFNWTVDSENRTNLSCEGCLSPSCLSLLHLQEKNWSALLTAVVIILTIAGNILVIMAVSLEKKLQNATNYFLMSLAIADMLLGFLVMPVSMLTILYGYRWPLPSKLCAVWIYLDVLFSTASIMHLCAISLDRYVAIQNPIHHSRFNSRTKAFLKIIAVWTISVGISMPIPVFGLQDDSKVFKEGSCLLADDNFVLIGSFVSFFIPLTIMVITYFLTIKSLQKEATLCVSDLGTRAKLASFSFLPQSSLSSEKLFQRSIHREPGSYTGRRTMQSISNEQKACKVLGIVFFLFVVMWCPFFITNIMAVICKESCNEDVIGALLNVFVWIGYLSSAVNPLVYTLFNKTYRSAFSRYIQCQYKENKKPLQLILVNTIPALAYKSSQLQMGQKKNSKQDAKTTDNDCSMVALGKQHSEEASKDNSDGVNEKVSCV

| SMILES | Ki [1] | Ki [2] | Papp [3] | IC50 at 24 h [4] | IC50 [5] | also measured |
| --- | --- | --- | --- | --- | --- | --- |
| COc1ccccc1N1CCN(CCCNC(=O)c2cnccn2)CC1 | 35.8 µM | 0.86 µM | 25 ×10⁻⁶ cm/s | > 500 µM |  |  |
| NS(=O)(=O)c1cc2c(cc1Cl)N=CNS2(=O)=O [CHLOROTHIAZIDE] |  |  | 0.3 ×10⁻⁶ cm/s |  |  |  |
| CN1CCN(C2=Nc3cc(Cl)ccc3Nc3ccccc32)CC1 [CLOZAPINE] |  |  |  |  | 110 µM |  |
| N#Cc1cccnc1N1CCN(CCCN2CCN(c3ccccc3)CC2)CC1 | 13 µM | 0.77 µM | 25 ×10⁻⁶ cm/s | 770 µM | > 3 µM |  |
| O=C1CCc2ccc(OCCCCN3CCN(c4cccc(Cl)c4Cl)CC3)cc2N1 [ARIPIPRAZOLE] |  |  |  |  | 630 µM | Activity [6]: Active; Activity [7]: Active; IC50 at 24 h [8]: > 100 µM |
| Cc1nccn1CC1CCc2c(c3ccccc3n2C)C1=O (stereo not drawn) [ONDANSETRON] |  | > 10 µM |  |  |  | pKb [9]: 7.36; Ki [10]: > 10 µM; Ki [11]: > 1 µM |
| CN(C)CCCN1c2ccccc2Sc2ccc(Cl)cc21 [CHLORPROMAZINE] |  |  | 9.6 ×10⁻⁶ cm/s |  |  |  |
| COc1ccc(N2CCN(CCCN3CCN(C(=O)c4ccccc4)CC3)CC2)cc1 | 30 µM | 5.5 µM | 23 ×10⁻⁶ cm/s | > 400 µM | > 10 µM |  |
| CN1CCN(c2nc3ncccc3cc2C#N)CC1 |  |  |  |  |  | Kb ([5]; read-out: pA2 (converted)): 0.0398 µM |
| O=C(c1ccccc1)N1CCN(CCCN2CCN(c3cccc(Cl)c3Cl)CC2)CC1 | 1.7 µM | 0.12 µM | 23 ×10⁻⁶ cm/s | 110 µM | > 3 µM |  |
| N#Cc1cccnc1N1CCN(CCCOc2ccc3c(c2)NC(=O)CC3)CC1 | 5.3 µM | 0.081 µM | 14 ×10⁻⁶ cm/s | 350 µM |  | pKb [9]: 5 |
| N#Cc1cccnc1N1CCN(CCCN2CCN(c3cccc(Cl)c3Cl)CC2)CC1 | 0.47 µM |  | 5.9 ×10⁻⁶ cm/s |  | 0.3 µM | Tmax [12]: 1 h; Activity [13]: Non-Toxic; Activity [14]: Non-Toxic; Activity [15]: Non-Toxic; MRT [16]: 7.65 h; AUC [17]: 88483.21 nmol·min/L; MRT [18]: 3.79 h; Cmax [19]: 266 nM; Ki [10]: 0.019 µM; Cmax [20]: 97.9 nM; Activity [21]: Non-Toxic; half-life [22]: 4.39 h; MTD [23]: 0.2 mg/kg; AUC [24]: 10886.71 nmol·min/L; Activity [25]: Non-Toxic; Activity [26]: Non-Toxic; half-life [27]: 1.67 h; Ki [11]: 0.57 µM; Tmax [28]: 3 min |

Source: ChEMBL document CHEMBL5143593 (Eur J Med Chem, 2022)
